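Each compound was tested at five concentrations against cells in 96-well plates for 48 hours. At the GI50, growth is halved. TGI denotes the concentration required for complete inhibition of growth.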
Assays:
Experiment in all cases: NCI-60 cell line screen, 48 h
[1] = tested on: A498 renal
[2] = tested on: SK-OV-3 ovarian
[3] = tested on: IGROV1 ovarian
[4] = tested on: OVCAR-5 ovarian
[5] = tested on: MALME-3M melanoma
[6] = tested on: HOP-62 NSCLC
[7] = tested on: SW-620 colon
[8] = tested on: SR leukemia
[9] = tested on: LOX IMVI melanoma
[10] = tested on: HT29 colon
[11] = tested on: U251 CNS
[12] = tested on: EKVX NSCLC
[13] = tested on: CCRF-CEM leukemia
[14] = tested on: OVCAR-3 ovarian
[15] = tested on: HL-60(TB) leukemia
[16] = tested on: SNB-75 CNS
[17] = tested on: SN12C renal
[18] = tested on: KM20L2 colon
[19] = tested on: SF-295 CNS
[20] = tested on: 786-0 renal
[21] = tested on: TK-10 renal
[22] = tested on: UACC-62 melanoma
[23] = tested on: HCC-2998 colon
[24] = tested on: ACHN renal
[25] = tested on: MOLT-4 leukemia
[26] = tested on: OVCAR-8 ovarian
[27] = tested on: SK-MEL-28 melanoma
[28] = tested on: SK-MEL-5 melanoma
[29] = tested on: SK-MEL-2 melanoma
[30] = tested on: RPMI-8226 leukemia
[31] = tested on: SNB-19 CNS
[32] = tested on: KM12 colon
[33] = tested on: K-562 leukemia
[34] = tested on: NCI-H460 lung
[35] = tested on: SF-268 CNS
[36] = tested on: NCI-H226 lung
[37] = tested on: A549 NSCLC
[38] = tested on: HCT-15 colon
[39] = tested on: NCI-H522 lung
[40] = tested on: UACC-257 melanoma
[41] = tested on: SF-539 CNS
[42] = tested on: RXF 393 renal
[43] = tested on: HCT-116 colon
[44] = tested on: UO-31 renal
[45] = tested on: HOP-92 NSCLC
[46] = tested on: NCI-H23 lung
[47] = tested on: COLO 205 colon
[48] = tested on: M14 melanoma
[49] = tested on: M19-MEL melanoma
[50] = tested on: DLD-1 colon
[51] = tested on: LXFL 529 NSCLC
[52] = tested on: OVCAR-4 ovarian
[53] = tested on: DMS 114 small cell lung
[54] = tested on: CAKI-1 renal
[55] = tested on: DMS 273 small cell lung
[56] = tested on: MDA-MB-231 breast
[57] = tested on: T-47D breast
[58] = tested on: BT-549 breast
[59] = tested on: MDA-N
[60] = tested on: PC-3 prostate
[61] = tested on: MDA-MB-435
[62] = tested on: DU-145 prostate
[63] = tested on: HS 578T breast
[64] = tested on: MCF7 breast
[65] = tested on: NCI/ADR-RES ovarian

## CC(=O)[O-].CC(=O)[O-].O=C(N/N=C/c1cc(Cl)cc(Cl)c1O)c1ccncc1.[Cu+2]
[1]
  TGI: > 100 µM
[2]
  TGI: > 100 µM
[3]
  TGI: > 100 µM
[4]
  TGI: > 100 µM
[5]
  TGI: > 100 µM
[6]
  TGI: > 100 µM
[7]
  TGI: > 100 µM
[8]
  TGI: > 100 µM
[9]
  TGI: > 100 µM
[10]
  TGI: > 100 µM
[11]
  TGI: > 100 µM
[12]
  TGI: > 100 µM
[13]
  TGI: > 100 µM
[14]
  TGI: > 100 µM
[15]
  TGI: > 100 µM
[16]
  TGI: > 100 µM
[17]
  TGI: > 100 µM
[18]
  TGI: > 100 µM
[19]
  TGI: > 100 µM
[20]
  TGI: > 100 µM
[21]
  TGI: > 100 µM
[22]
  TGI: > 100 µM
[23]
  TGI: > 100 µM
[24]
  TGI: > 100 µM
[25]
  TGI: > 100 µM
[26]
  TGI: > 100 µM
[27]
  TGI: > 100 µM
[28]
  TGI: > 100 µM
[29]
  GI50: > 100 µM
  TGI: > 100 µM
[30]
  TGI: > 100 µM
[31]
  TGI: > 100 µM
[32]
  TGI: > 100 µM
[33]
  TGI: > 100 µM
[34]
  TGI: > 100 µM
[35]
  TGI: > 100 µM
[36]
  TGI: > 100 µM
[37]
  TGI: > 100 µM
[38]
  TGI: > 100 µM
[39]
  TGI: > 100 µM
[40]
  TGI: > 100 µM
[41]
  TGI: > 100 µM
[42]
  TGI: > 100 µM
[43]
  TGI: > 100 µM
[44]
  TGI: > 100 µM
[45]
  GI50: > 100 µM
  TGI: > 100 µM
[46]
  TGI: > 100 µM
[47]
  TGI: > 100 µM
[48]
  TGI: > 100 µM

## N#Cc1cccc(-n2[nH]c(=O)ccc2=O)c1
[49]
  TGI: > 100 µM
[3]
  TGI: > 100 µM
[50]
  TGI: > 100 µM
[4]
  TGI: > 100 µM
[5]
  TGI: > 100 µM
[51]
  TGI: > 100 µM
[6]
  TGI: > 100 µM
[7]
  TGI: > 100 µM
[52]
  TGI: > 100 µM
[8]
  TGI: > 100 µM
[10]
  TGI: > 100 µM
[11]
  TGI: > 100 µM
[53]
  TGI: > 100 µM
[13]
  TGI: > 100 µM
[14]
  TGI: > 100 µM
[15]
  TGI: > 100 µM
[16]
  TGI: > 100 µM
[18]
  TGI: > 100 µM
[19]
  TGI: > 100 µM
[20]
  TGI: > 100 µM
[21]
  TGI: > 100 µM
[22]
  TGI: > 100 µM
[23]
  TGI: > 100 µM
[24]
  TGI: > 100 µM
[25]
  TGI: > 100 µM
[26]
  TGI: > 100 µM
[27]
  TGI: > 100 µM
[54]
  TGI: > 100 µM
[28]
  TGI: > 100 µM
[29]
  TGI: > 100 µM
[30]
  TGI: > 100 µM
[31]
  TGI: > 100 µM
[32]
  TGI: > 100 µM
[55]
  TGI: > 100 µM
[33]
  TGI: > 100 µM
[34]
  TGI: > 100 µM
[35]
  TGI: > 100 µM
[36]
  TGI: > 100 µM
[37]
  TGI: > 100 µM
[38]
  TGI: > 100 µM
[39]
  TGI: > 100 µM
[40]
  TGI: > 100 µM
[41]
  TGI: > 100 µM
[43]
  TGI: > 100 µM
[44]
  TGI: > 100 µM
[45]
  TGI: > 100 µM
[46]
  TGI: > 100 µM
[47]
  TGI: > 100 µM
[48]
  TGI: > 100 µM

## CC(=O)Nc1cc2ccc(=O)oc2cc1Cl
[1]
  TGI: > 100 µM
[56]
  TGI: > 100 µM
[3]
  TGI: > 100 µM
[4]
  TGI: > 100 µM
[5]
  TGI: > 100 µM
[6]
  TGI: > 100 µM
[7]
  TGI: > 100 µM
[52]
  TGI: > 100 µM
[8]
  TGI: > 100 µM
[9]
  TGI: > 100 µM
[10]
  TGI: > 100 µM
[11]
  TGI: > 100 µM
[12]
  TGI: > 100 µM
[13]
  TGI: > 100 µM
[14]
  TGI: > 100 µM
[15]
  TGI: > 100 µM
[16]
  TGI: > 100 µM
[17]
  TGI: > 100 µM
[19]
  TGI: > 100 µM
[20]
  TGI: > 100 µM
[22]
  TGI: > 100 µM
[23]
  TGI: > 100 µM
[57]
  TGI: > 100 µM
[24]
  TGI: > 100 µM
[25]
  TGI: > 100 µM
[26]
  TGI: > 100 µM
[27]
  TGI: > 100 µM
[54]
  TGI: > 100 µM
[28]
  TGI: > 100 µM
[58]
  TGI: > 100 µM
[59]
  TGI: > 100 µM
[29]
  TGI: > 100 µM
[30]
  TGI: > 100 µM
[31]
  TGI: > 100 µM
[60]
  TGI: > 100 µM
[61]
  TGI: > 100 µM
[32]
  TGI: > 100 µM
[33]
  TGI: > 100 µM
[34]
  TGI: > 100 µM
[62]
  TGI: > 100 µM
[63]
  TGI: > 100 µM
[35]
  TGI: > 100 µM
[36]
  TGI: > 100 µM
[37]
  TGI: > 100 µM
[64]
  TGI: > 100 µM
[38]
  TGI: > 100 µM
[39]
  TGI: > 100 µM
[40]
  TGI: > 100 µM
[41]
  TGI: > 100 µM
[42]
  TGI: > 100 µM
[43]
  TGI: > 100 µM
[44]
  TGI: > 100 µM
[45]
  TGI: > 100 µM
[46]
  TGI: > 100 µM
[47]
  TGI: > 100 µM
[48]
  TGI: > 100 µM
[65]
  TGI: > 100 µM

## CC(C)(CN1CCCCC1)C(/C=C/c1ccc(Cl)cc1)=N\NC(=O)N/N=C(/C=C/c1ccc(Cl)cc1)C(C)(C)CN1CCCCC1
[1]
  TGI: 20.4 µM
[56]
  TGI: 7.21 µM
[2]
  TGI: 25.4 µM
[3]
  TGI: 13.4 µM
[4]
  TGI: 14.7 µM
[5]
  TGI: 22.9 µM
[6]
  TGI: 14.2 µM
[7]
  TGI: 7.67 µM
[52]
  TGI: 15 µM
[8]
  TGI: 8.52 µM
[9]
  TGI: 5.97 µM
[10]
  TGI: 12.2 µM
[11]
  TGI: 12.6 µM
[12]
  TGI: 18.8 µM
[13]
  TGI: > 21.9 µM
[14]
  TGI: 10.7 µM
[15]
  TGI: > 19.9 µM
[16]
  TGI: 12.7 µM
[17]
  TGI: 14.6 µM
[19]
  TGI: 33 µM
[20]
  TGI: 11.1 µM
[21]
  TGI: 22.5 µM
[22]
  TGI: 12.1 µM
[23]
  TGI: 16.3 µM
[57]
  TGI: 13.6 µM
[24]
  TGI: 15 µM
[25]
  TGI: 9.97 µM
[26]
  TGI: 23.1 µM
[27]
  TGI: 25.3 µM
[54]
  TGI: 7.3 µM
[28]
  TGI: 11.2 µM
[58]
  TGI: 13.2 µM
[59]
  TGI: 10.7 µM
[29]
  TGI: 22.8 µM
[30]
  TGI: 54.8 µM
[31]
  TGI: 16.3 µM
[60]
  TGI: 19.7 µM
[61]
  TGI: 13.5 µM
[32]
  TGI: 16.9 µM
[33]
  TGI: > 100 µM
[34]
  TGI: 10.2 µM
[62]
  TGI: 18 µM
[63]
  TGI: 19.9 µM
[35]
  TGI: 21.6 µM
[36]
  TGI: 16.4 µM
[37]
  TGI: > 57 µM
[64]
  TGI: > 35.3 µM
[38]
  TGI: 7.99 µM
[39]
  TGI: 8.05 µM
[40]
  TGI: 17.1 µM
[41]
  TGI: 18.9 µM
[42]
  TGI: 8.24 µM
[43]
  TGI: 12.5 µM
[44]
  TGI: 9.03 µM
[45]
  TGI: 8.72 µM
[46]
  TGI: 10.3 µM
[47]
  TGI: 11.7 µM
[48]
  TGI: 11.1 µM
[65]
  TGI: 29.4 µM
